In patent US11046697B2, “Compounds and compositions useful for treating disorders related to NTRK” (BLUEPRINT MEDICINES CORPORATION, priority 2015, dated 2021):

What was measured:
wild type NTRK1 enzyme = molecular target: T1, wild type NTRK1 enzyme (Homo sapiens, UniProt P04629); experiment: NTRK1 Wild Type Assay at 1 mM ATP; type: biochemical; conditions: 1 mM ATP; read-out: Enz NTRK1 IC50
T1 construct: purchased BPS Bioscience 40280
Protocol: NTRK1 Wild Type Assay at 1 mM ATP
The reaction was stopped by the addition of 70 μL of Stop buffer (100 mM HEPES pH 7.5, 0.015% Brij 35, 35 mM EDTA and 0.2% of Coating Reagent 3 (Caliper Lifesciences)). The plate was then read on a Caliper EZReader 2 (protocol settings: −1.7 psi, upstream voltage −500, downstream voltage −3000, post sample sip 35s).

[1] = system: KM12 wild type colon carcinoma cell line harboring the TPM3-NTRK1 fusion protein; experiment: NTRK wild type cellular assay (CellTiter-Glo growth inhibition); type: cell-based; conditions: Homo sapiens, KM12, 72 h, 72 hr, CellTiter-Glo; read-out: KM12 (WT) IC50
Protocol: (§1) NTRK Wild Type and G595R Mutant Cellular Assays Protocol
(§2) KM12 wild type colon carcinoma cell line harboring the TPM3-NTRK1 fusion protein was obtained from the National Cancer Institute (NCI). This line has been previously shown to be dependent upon the NTRK activity derived from the NTRK fusion protein for growth and survival. […] Cells were first plated in 384-well plates at 1000 cells/well in complete media (10% FBS and 1% pen/strep) and incubated overnight at 37° C. Cells were then dosed with test articles at varying concentrations using the Bravo liquid handling system. […] Each compound was run in duplicate per plate. […] 72 hr after dosing, assay plates were developed using CellTiter-Glo (Promega) and resultant luminescence was read on the Envision plate reader. IC50 determinations were calculated using a 4-parameter curve fitting algorithm

[2] = system: KM12 Cliff (G595R) cell line; experiment: NTRK G595R mutant cellular assay (CellTiter-Glo growth inhibition); type: cell-based; conditions: Homo sapiens, KM12, 72 h, 72 hr, CellTiter-Glo
Protocol: as §1, §2

T1 sequence (P04629 440-796 limits assumed): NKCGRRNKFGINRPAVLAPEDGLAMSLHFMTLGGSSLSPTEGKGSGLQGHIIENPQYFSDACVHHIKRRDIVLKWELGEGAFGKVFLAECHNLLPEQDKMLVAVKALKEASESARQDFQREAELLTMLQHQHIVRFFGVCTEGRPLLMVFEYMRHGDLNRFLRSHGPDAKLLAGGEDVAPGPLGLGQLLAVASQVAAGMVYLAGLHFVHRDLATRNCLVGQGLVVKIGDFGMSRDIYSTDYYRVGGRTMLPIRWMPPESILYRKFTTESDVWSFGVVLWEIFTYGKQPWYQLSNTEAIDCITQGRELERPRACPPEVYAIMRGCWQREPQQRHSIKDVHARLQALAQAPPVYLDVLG

`COc1c(F)cc(F)cc1CNC(=O)c1n[nH]c2ncnc(N[C@@H]3COCC[C@H]3O)c12` [Compound 54] showed an IC50 (wild type NTRK1 enzyme) of 10 to 100 nM, an IC50 [1] of 100 to 1000 nM and an IC50 [2] of 100 to 1000 nM.
`O=C(N[C@H](CO)c1cc(F)ccc1F)c1n[nH]c2ncnc(N[C@@H]3COCC[C@H]3O)c12` [Compound 56] was tested, and the IC50 (wild type NTRK1 enzyme) was 10 to 100 nM, the IC50 [1] was 100 to 1000 nM and the IC50 [2] was 100 to 1000 nM.
Work on `CN(Cc1cc(F)cnc1Cl)C(=O)c1n[nH]c2ncnc(N[C@@H]3CC[C@@H](O)[C@H]3O)c12` [Compound 60] yielded an IC50 (wild type NTRK1 enzyme) of 10 to 100 nM, an IC50 [1] of 10 to 100 nM and an IC50 [2] of 10 to 100 nM.
For `O=C(NC(CO)c1cc(F)ccc1F)c1n[nH]c2ncnc(NC3CC(F)CC3O)c12` (stereo not drawn) [Compound 61], the IC50 (wild type NTRK1 enzyme) was 100 to 1000 nM, the IC50 [1] was 100 to 1000 nM and the IC50 [2] was over 1000 nM.
Compound `CN(Cc1cc(F)cc(F)c1F)C(=O)c1n[nH]c2ncnc(N[C@@H]3CC[C@@H](O)[C@H]3O)c12` [Compound 63] has an IC50 (wild type NTRK1 enzyme) of under 10 nM, an IC50 [1] of 10 to 100 nM and an IC50 [2] of 10 to 100 nM.
For `O=C(c1n[nH]c2ncnc(N[C@@H]3CC[C@@H](O)[C@H]3O)c12)N1CCC[C@@H]1c1cc(F)ccc1F` [Compound 71], the IC50 (wild type NTRK1 enzyme) was 10 to 100 nM, the IC50 [1] was 10 to 100 nM and the IC50 [2] was 100 to 1000 nM.
In the case of `O=C(c1n[nH]c2ncnc(N[C@@H]3CCOC[C@H]3O)c12)N1C[C@@H](F)C[C@@H]1c1cncc(F)c1` [Compound 73], the IC50 (wild type NTRK1 enzyme) is reported as under 10 nM, the IC50 [1] is reported as under 10 nM and the IC50 [2] is reported as 10 to 100 nM.
For `O=C(c1n[nH]c2ncnc(N[C@@H]3COCC[C@H]3O)c12)N1C[C@@H](F)C[C@@H]1c1cncc(F)c1` [Compound 74], the IC50 (wild type NTRK1 enzyme) was under 10 nM, the IC50 [1] was 10 to 100 nM and the IC50 [2] was 10 to 100 nM.
In the case of `O=C(c1n[nH]c2ncnc(N[C@@H]3COC[C@H]3O)c12)N1C[C@@H](F)C[C@@H]1c1cc(F)ccc1F` [Compound 78], the IC50 (wild type NTRK1 enzyme) is reported as under 10 nM, the IC50 [1] is reported as under 10 nM and the IC50 [2] is reported as 10 to 100 nM.
Compound `N#C[C@H]1C[C@H](c2cc(F)ccc2F)N(C(=O)c2n[nH]c3ncnc(N[C@@H]4CCC[C@H]4O)c23)C1` [Compound 79] has an IC50 (wild type NTRK1 enzyme) of under 10 nM, an IC50 [1] of under 10 nM and an IC50 [2] of 10 to 100 nM.
Compound `O=C(c1n[nH]c2ncnc(N[C@@H]3C[C@@H](O)C[C@H]3O)c12)N1C[C@@H](F)C[C@@H]1c1cc(F)ccc1F` [Compound 86] has an IC50 (wild type NTRK1 enzyme) of under 10 nM, an IC50 [1] of under 10 nM and an IC50 [2] of under 10 nM.
`O=C(c1n[nH]c2ncnc(N[C@@H]3COCC[C@H]3O)c12)N1C[C@@H](F)C[C@@H]1c1cc(F)ccc1F` [Compound 92] showed an IC50 (wild type NTRK1 enzyme) of under 10 nM, an IC50 [1] of under 10 nM and an IC50 [2] of under 10 nM.
For `O=C(c1n[nH]c2ncnc(NC3CC(F)CC3O)c12)N1CC(F)CC1c1cc(F)ccc1F` (stereo not drawn) [Compound 95], the IC50 (wild type NTRK1 enzyme) was under 10 nM, the IC50 [1] was under 10 nM and the IC50 [2] was under 10 nM.
`CS(=O)(=O)[C@H]1C[C@@H](O)[C@H](Nc2ncnc3[nH]nc(C(=O)NCc4cc(F)ccc4F)c23)C1` [Compound 97, N-(2,5-difluorobenzyl)-4-(((1R,2R,4R)-2-hydroxy-4-(methylsulfonyl)cyclopentyl)amino)-1H-pyrazolo[3,4-d]pyrimidine-3-carboxamide] was tested, and the IC50 (wild type NTRK1 enzyme) was under 10 nM, the IC50 [1] was 10 to 100 nM and the IC50 [2] was 100 to 1000 nM.
`CN(Cc1cc(F)ccc1C(F)(F)F)C(=O)c1n[nH]c2ncnc(N[C@@H]3CC[C@@H](O)[C@H]3O)c12` [Compound 99] showed an IC50 (wild type NTRK1 enzyme) of under 10 nM, an IC50 [1] of under 10 nM and an IC50 [2] of under 10 nM.
In the case of `N#C[C@H]1C[C@H](c2cc(F)ccc2F)N(C(=O)c2n[nH]c3ncnc(N[C@@H]4COCC[C@H]4O)c23)C1` [Compound 100], the IC50 (wild type NTRK1 enzyme) is reported as 10 to 100 nM, the IC50 [1] is reported as 10 to 100 nM and the IC50 [2] is reported as 100 to 1000 nM.
With `O=C(NCc1cc(F)ccc1OC(F)(F)F)c1n[nH]c2ncnc(N[C@@H]3CC[C@@H](O)[C@H]3O)c12` [Compound 101] the IC50 (wild type NTRK1 enzyme) was 100 to 1000 nM, the IC50 [1] was 100 to 1000 nM and the IC50 [2] was 100 to 1000 nM.
With `O=C(N[C@@H](c1cc(F)ccc1F)C(F)(F)F)c1n[nH]c2ncnc(N[C@@H]3COCC[C@H]3O)c12` [Compound 103] the IC50 (wild type NTRK1 enzyme) was over 1000 nM, the IC50 [1] was over 1000 nM and the IC50 [2] was over 1000 nM.
`O=C(c1n[nH]c2ncnc(N[C@H]3[C@H](O)[C@H](O)[C@@H]4C[C@@H]43)c12)N1C[C@@H](F)C[C@@H]1c1cc(F)ccc1F` [Compound 104] gave an IC50 (wild type NTRK1 enzyme) of under 10 nM, an IC50 [1] of under 10 nM and an IC50 [2] of under 10 nM.
Work on `O=C(c1n[nH]c2ncnc(N[C@@H]3CCC[C@@H](O)[C@H]3O)c12)N1C[C@@H](F)C[C@@H]1c1cc(F)ccc1F` [Compound 106] yielded an IC50 (wild type NTRK1 enzyme) of under 10 nM, an IC50 [1] of under 10 nM and an IC50 [2] of under 10 nM.
`O=C(c1n[nH]c2ncnc(N[C@@H]3CC[C@@H](O)[C@H]3O)c12)N1CC(F)(F)C[C@@H]1c1cc(F)cc(F)c1` [Compound 108] showed an IC50 (wild type NTRK1 enzyme) of 10 to 100 nM, an IC50 [1] of 100 to 1000 nM and an IC50 [2] of 100 to 1000 nM.
